# Laboratory results reported in US11072601B2, “μ-opioid receptor agonist and preparation method therefor and use thereof in field of medicine” (SHANGHAI SYNERGY PHARMACEUTICAL SCIENCES CO., LTD., priority 2017, dated 2021).
# Tests used:
# [1] = biological target: T1, β-arrestin signaling pathway of MOR (Homo sapiens, UniProt P35372); experiment: cell-based; details: PathHunter HEK293 cells, relative to endorphin MAX control
# T1 construct: host or cells: HEK293 (PathHunter cell line)
# μ opioid receptor (MOR) = biological target: T2, μ opioid receptor (MOR) (Homo sapiens, UniProt P35372); experiment: cell-based; details: HEK293 stably expressing μ opioid receptor, FLIPR calcium
# T2 construct: host or cells: HEK293
# T2 sequence (P35372 whole entry, species assumed): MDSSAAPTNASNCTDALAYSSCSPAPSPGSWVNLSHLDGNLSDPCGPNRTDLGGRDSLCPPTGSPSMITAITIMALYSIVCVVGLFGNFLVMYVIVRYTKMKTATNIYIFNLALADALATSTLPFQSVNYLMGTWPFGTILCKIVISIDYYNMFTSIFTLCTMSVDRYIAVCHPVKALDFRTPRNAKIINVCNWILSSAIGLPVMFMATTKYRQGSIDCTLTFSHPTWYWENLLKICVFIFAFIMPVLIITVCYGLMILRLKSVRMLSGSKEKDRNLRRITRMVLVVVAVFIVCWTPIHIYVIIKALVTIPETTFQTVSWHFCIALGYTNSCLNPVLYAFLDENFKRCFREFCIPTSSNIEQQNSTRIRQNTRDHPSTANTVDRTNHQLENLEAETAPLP
# Experimental: The purpose of the experiment was to test the agonistic effects of the compounds of the present invention on μ opioid receptor (MOR), κ opioid receptor (KOR) and δ opioid receptor (DOR), and to evaluate in vitro activity of the compounds according to the half-maximal effect concentration (EC50).
# This test was performed using HEK293 cell lines (the stably expressed cell lines were provided by WuXi AppTec) which stably expressed μ opioid receptor, δ opioid receptor or κ opioid receptor respectively. […] The cells were centrifuged at 1000 rpm for 5 minutes at room temperature to precipitate. The supernatant was sucked out, be careful not to suck out cells. The precipitate was flicked into the loose cells and resuspend in 45 ml DMEM medium. The Vi-CELL XR automatic cell viability detector (BECKMAN COULTER) was used to count the cells, and the cell concentration was adjusted to 10×10^5 cells/ml based on the counting results.
# Preparation of probenecid mother solution: 1 ml of FLIPR test solution was added to 77 mg probenecid to prepare a 250 mM solution. The solution was freshly prepared just before use.
# The solution was freshly prepared just before use.
# The cell plate prepared above was removed from the incubator and 20 ul 2× Fluo-4 Direct™ buffer was added thereto. The final volume in the cell plate was […]. The plate was incubated at 37° C., under 5% CO2 for 50 minutes, and incubated at room temperature for 10 minutes, then was placed into the FLIPR instrument (MD), and the compound plate and pipette box was placed into. The protocol was run on the […] platform, 10 μl of positive drug or the test compound was transfered to the cell plate from the compound plate, and the fluorescent signal was read.
# The signal value generated by each well was calculated, and the calculation formula was that: the activity %=(signal value of the test compound−signal value of the solvent)/(signal value of the positive drug−signal value of the solvent).
# [2] = biological target: T3, cAMP pathway of MOR receptor (Homo sapiens, UniProt P35372); experiment: cell-based; details: cAMP Hunter HEK293 cells, forskolin-induced cAMP; read-out: EC50 of cAMP levels affected by agonistic effect on MOR
# T3 construct: host or cells: HEK293 (cAMP Hunter cell line)
# T3 sequence (P35372 whole entry): as the sequence (P35372 whole entry, species assumed) above
# Excerpt: The purpose of this experiment was to test the agonistic effect of the compounds of the invention on the cAMP pathway of MOR and to evaluate the in vitro activity of the compounds according to EC50.
# In this experiment, HitHunter cAMP Assay EFC technology of DiscoverX was used to measure the cAMP level in cells and monitor the functional status of G-protein coupled receptors (GPCRs).
# The amount of signal produced was directly proportional to the amount of cAMP in the cell.
# The MOR receptor was bound to the inhibitory Gαi protein, so forskolin (for inducing cAMP signal) was used to induce cAMP expression in the experiment, and the inhibitory effect of the compounds on the above induction was measured.
# The cAMP Hunter cell line (HEK293, DiscoverX) was removed from the freezer and expanded according to the Cell Standard Operating Procedure (SOP), 20 μL was collected and inoculated into a 384-well microplate and incubated at 37° C. overnight.
# The HitHunter cAMP Assay test kit (DiscoverX, 90-0075sm) was used, the kit contained cAMP buffer, cAMP detection solution, and cAMP working solution A.
# The formula was used to calculate the percentage of signal activity per well=100%×(1−(average RLU of the test samples−average RLU of the MAX controls)/(average RLU of the solvent controls−average RLU of the MAX controls)). wherein, the MAX control referred to the fluorescence signal value of the endorphin solution, and the solvent control referred to the fluorescence signal value of DMSO. The DiscoveRx CBIS data analysis workstation (ChemInnovation, CA) was used to perform statistical analysis of the percentage of signal activity and the concentration of the compounds by the agonist formula (comes with the software, universal) to calculate the EC50 value.
# SD rats = experiment: Respiratory depression in rats, arterial blood gas PCO2; type: in vivo
# Excerpt: 8-week-old male SD rats weighing 200 g-300 g were used as experimental animals to determine the effect of the compound of Example H05, the compound of Example H08, the compound of Example H10, the compound of Example H16, the compound of Example H17, the compound of Example H18, the compound of Example H21, and the compound of Example H24 on the partial pressure of blood in rats after intravenous administration. The effects of the compounds of the invention on respiratory depression were investigated.
# After the rats were acclimatized to the experimental environment for 3 days, each animal was anesthetized with sodium pentobarbital (50-60 mg/kg, ip), and then the right common carotid artery was isolated and the unilateral carotid artery tube-bury surgery was performed (PE60, ID*OD*length as 0.76 mm*1.22 mm*20 cm, buried into the artery 1 cm deep, and the tube was filled with heparin sodium tube sealing solution).
# T1 sequence (P35372 whole entry): as the sequence (P35372 whole entry, species assumed) above
compound,measurement,setting,value
N#Cc1cccc(CNCCC2(c3ccccn3)CCOC3(CCCC3)C2)c1OC(F)(F)F (centres unmarked) [Example H13],Emax,[1],3.41%
same,EC50,μ opioid receptor (MOR),5.16 nM
same,EC50,[2],9.43 nM
"Cc1ccc(CNCCC2(c3ccccn3)CCOC3(CCCC3)C2)c(OC(F)(F)F)c1 (centres unmarked) [Example H12, (4-methyl-2-trifluoromethoxybenzyl)-[2-(9-(pyridin-2-yl)-6-oxaspiro[4.5]decan-9-yl)ethyl]amine]",Emax,[1],32.2%
same,EC50,μ opioid receptor (MOR),2.04 nM
same,EC50,[2],5.51 nM
"Fc1ccc(C2(CCNCc3ccccc3OC(F)F)CCOC3(CCCC3)C2)nc1 (centres unmarked) [Example H29, {2-[9-(5-fluoro-pyridin-2-yl) -6-oxa-spiro[4.5]decan-9-yl]-ethyl}-(2-(difluoromethoxy)-benzyl) -amine]",Emax,[1],7.07%
same,EC50,μ opioid receptor (MOR),6.09 nM
same,EC50,[2],10.4 nM
"Cc1c(Cl)cccc1CNCCC1(c2ccc(F)cn2)CCOC2(CCCC2)C1 (centres unmarked) [Example H32, {2-[9-(5-fluoro-pyridin-2-yl)-6-oxa-spiro[4.5]decan-9-yl]-ethyl}-(3-chloro-2-methyl-benzyl)-amine]",Emax,[1],11.7%
same,EC50,μ opioid receptor (MOR),7.35 nM
same,EC50,[2],13.5 nM
CNc1ccccc1CNCCC1(c2ccccn2)CCOC2(CCCC2)C1 (centres unmarked) [Example H03],Emax,[1],3.19%
same,EC50,μ opioid receptor (MOR),6.47 nM
same,EC50,[2],4.36 nM
"Fc1ccc(C2(CCNCc3sccc3OC(F)F)CCOC3(CCCC3)C2)nc1 (centres unmarked) [Example H33, {2-[9-(5-fluoro-pyridin-2-yl)-6-oxa-spiro[4.5]decan-9-yl]-ethyl}-((3-difluoromethoxythiophen-2-yl) -methyl)-amine]",Emax,[1],8.69%
same,EC50,μ opioid receptor (MOR),5.25 nM
same,EC50,[2],12 nM
"FC(F)(F)Oc1cc(Br)ccc1CNCCC1(c2ccccn2)CCOC2(CCCC2)C1 (centres unmarked) [Example H11, (4-bromo-2-trifluoromethoxybenzyl)-[2-(9-(pyridin-2-yl)-6-oxaspiro[4.5]decan-9-yl)ethyl]amine]",Emax,[1],2.28%
same,EC50,μ opioid receptor (MOR),2.08 nM
same,EC50,[2],7.31 nM
"FC(F)(F)Oc1c(Br)cccc1CNCCC1(c2ccccn2)CCOC2(CCCC2)C1 (centres unmarked) [Example H28, (3-bromo-2-trifluoromethoxybenzyl)-[2-(9-pyridin-2-yl-6-oxa-spiro[4.5]decan-9-yl)-ethyl]-amine]",Emax,[1],6.26%
same,EC50,μ opioid receptor (MOR),6.35 nM
same,EC50,[2],14.2 nM
"COc1ccc2c(c1)CN(CCC1(c3ccccn3)CCOC3(CCCC3)C1)CC2 (centres unmarked) [Example H20, 7-methoxy-2-[2-(9-pyridin-2-yl-6-oxa-spiro[4.5]decan-9-yl)-ethyl]-1,2,3,4-tetrahydroisoquinoline]",Emax,[1],2.12%
same,EC50,μ opioid receptor (MOR),3.53 nM
same,EC50,[2],19.9 nM
"CN1CC[C@]23c4c5ccc(O)c4O[C@H]2[C@@H](O)C=C[C@H]3[C@H]1C5 [morphine, reference compound]","PCO2, 5 min before administration","SD rats; arterial blood, before administration",36.41 ± 0.98 mmHg
same,"PCO2, 5 min after administration","SD rats; intravenous single dose 0.3 mg/kg (morphine 24 mg/kg), 5 min",37.26 ± 1.18 mmHg
same,"PCO2, 30 min after administration","SD rats; intravenous single dose 0.3 mg/kg (morphine 24 mg/kg), 30 min",40.94 ± 2.78 mmHg
same,"PCO2, 60 min after administration","SD rats; intravenous single dose 0.3 mg/kg (morphine 24 mg/kg), 60 min",58.63 ± 3.53 mmHg
same,"PCO2, 120 min after administration","SD rats; intravenous single dose 0.3 mg/kg (morphine 24 mg/kg), 120 min",56.9 ± 4.05 mmHg
COc1ccsc1CNCC(C)C1(c2ccccn2)CCOC2(CCCC2)C1 (centres unmarked) [Example H26],Emax,[1],22.6%
same,EC50,μ opioid receptor (MOR),1.76 nM
same,EC50,[2],6.95 nM
"FC(F)(F)Oc1ccccc1CNCCC1(c2ccccn2)CCOC2(CCCC2)C1 (centres unmarked) [Example H22, (2-trifluoromethoxybenzyl)-[2-(9-pyridin-2-yl-6-oxa-spiro[4.5]decan-9-yl) -ethyl]-amine]",Emax,[1],2.31%
same,EC50,μ opioid receptor (MOR),1.04 nM
same,EC50,[2],11.9 nM
"Oc1ccc(CNCCC2(c3ccccn3)CCOC3(CCCC3)C2)c(OC(F)(F)F)c1 (centres unmarked) [Example H15, 4-{[2-(9-(pyridin-2-yl)-6-oxaspiro[4.5]decan-9-yl)ethylamine]methyl}-3-trifluoromethoxyphenol]",Emax,[1],15.8%
same,EC50,μ opioid receptor (MOR),3.32 nM
same,EC50,[2],4.28 nM
"FC(F)(F)c1ccsc1CNCCC1(c2ccccn2)CCOC2(CCCC2)C1 (centres unmarked) [Example H14, ((3-trifluoromethylthiophen-2-yl)methyl)-[2-(9-(pyridin-2-yl)-6-oxaspiro[4.5]decan-9-yl)ethyl]a mine]",Emax,[1],1.82%
same,EC50,μ opioid receptor (MOR),2.1 nM
same,EC50,[2],15.9 nM
"Cc1ccc(CNCCC2(c3ccc(F)cn3)CCOC3(CCCC3)C2)cc1C (centres unmarked) [Example H31, {2-[9-(5-fluoro-pyridin-2-yl)-6-oxa-spiro[4.5]decan-9-yl]-ethyl}-(3,4-dimethyl-benzyl)-amine]",Emax,[1],5.06%
same,EC50,μ opioid receptor (MOR),3.83 nM
same,EC50,[2],8.73 nM
"Fc1cnc(C2(CCNCc3ccccc3OC(F)(F)F)CCOC3(CCCC3)C2)c(Cl)c1 (centres unmarked) [Example H09, (2-trifluoromethoxybenzyl)-[2-(9-(3-chloro-5-fluoropyridin-2-yl)-6-oxaspiro[4.5]decan-9-yl)ethyl]amine]",Emax,[1],3.28%
same,EC50,μ opioid receptor (MOR),4.12 nM
same,EC50,[2],8.45 nM
"c1ccc(C2(CCN3CCc4ccsc4C3)CCOC3(CCCC3)C2)nc1 (centres unmarked) [Example H23, 6-[2-(9-pyridin-2-yl-6-oxa-spiro[4.5]decan-9-yl)-ethyl]-4,5,6,7-tetrahydro-thieno[2,3-c]pyridine]",Emax,[1],2.2%
same,EC50,μ opioid receptor (MOR),4.08 nM
same,EC50,[2],9.73 nM
"COc1[nH]ncc1CNCCC1(c2ccccn2)CCOC2(CCCC2)C1 (centres unmarked) [Example H25, [(5-methoxy-1H-pyrazol-4-yl)methyl]-[2-(9-(pyridin-2-yl)-6-oxaspiro[4.5]decan-9-yl)ethyl] amine]",Emax,[1],3.2%
same,EC50,μ opioid receptor (MOR),2.02 nM
same,EC50,[2],12.8 nM
"FC(F)(F)c1ccc2c(c1)CN(CCC1(c3ccccn3)CCOC3(CCCC3)C1)CC2 (centres unmarked) [Example H19, 2-[2-(9-(pyridin-2-yl)-6-oxaspiro[4.5]decan-9-yl)ethyl]-7-trifluoromethyl-1,2,3,4-tetrahydroisoquinoline]",Emax,[1],1.12%
same,EC50,μ opioid receptor (MOR),5.43 nM
same,EC50,[2],18.6 nM
"FC(F)(F)Oc1ccc(CNCCC2(c3ccccn3)CCOC3(CCCC3)C2)cc1 (centres unmarked) [Example H06, (4-trifluoromethoxybenzyl)-[2-(9-(pyridin-2-yl)-6-oxaspiro[4.5]decan-9-yl)ethyl]amine]",Emax,[1],0.66%
same,EC50,μ opioid receptor (MOR),6.1 nM
same,EC50,[2],11.8 nM
COc1ccsc1CNC(C)CC1(c2ccccn2)CCOC2(CCCC2)C1 (centres unmarked) [Example H27],Emax,[1],3.32%
same,EC50,μ opioid receptor (MOR),4.01 nM
same,EC50,[2],12 nM
"Fc1ccc(C2(CCNCc3sccc3Cl)CCOC3(CCCC3)C2)nc1 (centres unmarked) [Example H30, {2-[9-(5-fluoro-pyridin-2-yl)-6-oxa-spiro[4.5]decan-9-yl]-ethyl}-((3-chlorothiophen-2-yl)-methyl)-amine]",Emax,[1],2.91%
same,EC50,μ opioid receptor (MOR),5.62 nM
same,EC50,[2],17.4 nM
